Experimental data reported in patent US20160130577A1, “NUCLEOTIDE SEQUENCE MOTIFS DIRECTING NUCLEIC ACID LOCATION TO EXTRACELLULAR VESICLES” (FUNDACIÓN CENTRO NACIONAL DE INVESTIGACIONES …, priority 2012, published 2016).

Columns and labels:
hnRNPA2B1 sumoylation = assay: Western blot of hnRNPA2B1 molecular weight in EVs with sumoylation inhibitor; type: cell-based, human; conditions: anacardic acid 100 μM 4 h, then diluted 1:4 overnight; versus DMSO
Method: (§1) To confirm whether the higher molecular weight of EVs hnRNPA2B1 was due to sumoylation, we cultured Jurkat T cells in the presence of the specific sumoylation inhibitor anacardic acid (AA). Briefly, cells were cultured with anacardic acid (100 μM) (Sigma) or 6 DMSO for 4 h at 37° C. Cells were then diluted 1:4 and incubated overnight. EVs and cells were resuspended in buffer 1 for western blotting or hnRNPA2B1 immunoprecipitation (FIG. 13B).

sumo-conjugated proteins = assay: Western blot of cell extracts for SUMO-1 (sumoylation inhibitor efficiency); type: cell-based, human; conditions: anacardic acid versus DMSO
Method: (§2) FIG. 13. Assessment of sumoylation inhibitor efficiency. (A) Western blot analysis of hnRNPA1 in T cells and their EVs. (B) Representative western blot showing the decrease in sumo-conjugated proteins in the presence of anacardic acid. Cells were incubated with anacardic acid (AA) or DMSO (control condition, CONT) and cell extracts were blotted for SUMO-1. (C) Representative western blot showing no changes in EV secretion and cell death in the presence of anacardic acid. Cells were incubated with anacardic acid (AA) or DMSO (CONT), and EV were purified by ultracentrifugation and blotted for CD81 and cytochrome c.
as §1

hnRNPA2B1 [1] = assay: hnRNPA2B1 IP-qPCR from EV lysates of control or AA-treated cells; type: cell-based, human; conditions: EV lysates from AA-treated versus control cells
Method: as §1

Jurkat T cells [2] = assay: Western blot of EVs for CD81 and cytochrome c (EV secretion, cell death); type: cell-based; conditions: anacardic acid versus DMSO
Method: as §2, §1

Jurkat T cells [3] = assay: qPCR of miRNA levels in EVs from control or AA-treated cells; type: cell-based, human; conditions: anacardic acid 100 μM versus DMSO
hnRNPA2B1 [4] = assay: pull-down of EV extracts with biotinylated miRNA-coated streptavidin beads, mass spectrometry; type: binding, human
Method: To analyze the molecular mechanism that controls the packaging of miRNAs presenting the motifs of the invention in EVs, a search was performed of the proteins present in EVs and which bind specifically to EVmiRNAs. For this purpose, extracts of isolated EVs from human T lymphoblasts were incubated in the presence of streptavidin beads coated with biotinylated EVmiRNA miR-198, or with biotinylated CLmiRNA miR-17. The analysis of EVs-coupled beads was performed by FACS. Briefly, Evs were obtained by ultracentrifugation and sucrose gradient flotation, resuspended in PBS and coupled to 4 μm aldehyde-sulfate beads (Invitrogen) overnight at room temperature in rotation. Beads were washed and blocked for 60 min at room temperature in 4% BSA in PBS. For intracellular staining, bead-bound Evs were permeabilized and fixed for 5 min at room temperature with 0.2% TX, 2% FA in PBS. […] Beads were acquired on a FACSCalibur (BD) and data were analyzed with FlowJo software (Tree Star). […] Briefly, the peptides were resuspended and injected onto a C-18 reversed phase (RP) nano-column (75 μm 2 I.D.×25 cm, Acclaim PepMap100, Thermo Scientific) and analyzed in a continuous acetonitrile gradient consisting of 0-43% B in 90 min, 50-90% B in 1 min (B=90% acetonitrile, 0.5% acetic acid). […] SEQUEST results were validated using the probability ratio method and false discovery rates calculated using the refined method. […]
Target sequence in this assay (P22626 15-353 limits assumed): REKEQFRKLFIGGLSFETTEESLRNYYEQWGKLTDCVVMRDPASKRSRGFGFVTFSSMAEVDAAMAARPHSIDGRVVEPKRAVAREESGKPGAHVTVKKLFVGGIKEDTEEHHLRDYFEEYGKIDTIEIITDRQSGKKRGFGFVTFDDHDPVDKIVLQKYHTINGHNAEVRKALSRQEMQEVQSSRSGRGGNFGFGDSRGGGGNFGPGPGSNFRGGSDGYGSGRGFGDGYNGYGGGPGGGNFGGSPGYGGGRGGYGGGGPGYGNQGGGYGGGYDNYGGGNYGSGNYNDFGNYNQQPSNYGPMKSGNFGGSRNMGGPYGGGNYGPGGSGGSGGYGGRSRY

RS3 = molecular target: T1, RS3 (Homo sapiens, UniProt P23396); assay: as above; type: binding; conditions: RS3 precipitated from EV extracts of human T lymphoblasts
T1 construct: endogenous in cells; host or cells: extracellular vesicles from primary human T lymphoblasts
Method: (§3) To analyze the molecular mechanism that controls the packaging of miRNAs presenting the motifs of the invention in EVs, a search was performed of the proteins present in EVs and which bind specifically to EVmiRNAs. For this purpose, extracts of isolated EVs from human T lymphoblasts were incubated in the presence of streptavidin beads coated with biotinylated EVmiRNA miR-198, or with biotinylated CLmiRNA miR-17. The analysis of EVs-coupled beads was performed by FACS. Briefly, Evs were obtained by ultracentrifugation and sucrose gradient flotation, resuspended in PBS and coupled to 4 μm aldehyde-sulfate beads (Invitrogen) overnight at room temperature in rotation. Beads were washed and blocked for 60 min at room temperature in 4% BSA in PBS. For intracellular staining, bead-bound Evs were permeabilized and fixed for 5 min at room temperature with 0.2% TX, 2% FA in PBS. Beads were incubated with antihnRNPA2B1 (Santa Cruz) or anti-CD81 (5A6, Santa Cruz) for 1 h at 4° C., washed and incubated with Alexa-488-goat-anti-mouse IgG (Invitrogen) for 30 min. Beads were acquired on a FACSCalibur (BD) and data were analyzed with FlowJo software (Tree Star). Negative controls were obtained with EV-coupled beads incubated with the secondary antibody. The proteins collected were identified by high performance mass spectrometry. As negative controls, uncoated or poly-A-coated streptavidin beads were used. Briefly, proteins were in-gel digested using a previously-described protocol. Briefly, 75 μl of beads were suspended in 25 μl sample buffer and loaded in 2.8-cm-wide wells of an SDS-PAGE gel. The run was stopped as soon as the front entered 3 mm into the resolving gel; the protein band was visualized by Coomassie staining, excised and digested overnight at 37° C. with 60 ng/μl trypsin at 5:1 protein:trypsin (w/w) ratio in 50 mM ammonium bicarbonate, pH 8.8 containing 10% ACN. The resulting tryptic peptides were extracted by 1 h incubation in 12 mM ammonium bicarbonate, pH 8.8. TFA was added to a final concentration of 1% and the peptides were finally desalted onto C18 Oasis cartridges and dried down. Peptide identification by mass spectrometry was performed as described. Briefly, the peptides were resuspended and injected onto a C-18 reversed phase (RP) nano-column (75 μm 2 I.D.×25 cm, Acclaim PepMap100, Thermo Scientific) and analyzed in a continuous acetonitrile gradient consisting of 0-43% B in 90 min, 50-90% B in 1 min (B=90% acetonitrile, 0.5% acetic acid). A flow rate of ca. 300 nL/min was used to elute peptides from the RP nano-column to an emitter nanospray needle for real time ionization and peptide fragmentation on an LTQ XP Orbitrap mass spectrometer (Thermo Fisher, San José, Calif., USA). An enhanced FT spectrum (30.000 resolution) followed by MS/MS spectra from most intense ten parent ions were performed along the chromatographic run (130 min). Dynamic exclusion was set at 30 s. The MS/MS raw files were searched against the Human Swissprot database (Uniprot release 14.0, 19929 sequence entries for human) supplemented with porcine trypsin and bacterial Streptavidin. SEQUEST results were validated using the probability ratio method and false discovery rates calculated using the refined method. Peptide and scan counting was performed assuming as positive events those with a FDR equal to or lower than 5%.

HNRPU = molecular target: T2, HNRPU (Homo sapiens, UniProt Q00839); assay: as above; type: binding; conditions: HNRPU precipitated from EV extracts of human T lymphoblasts
T2 construct: endogenous in cells; host or cells: extracellular vesicles from primary human T lymphoblasts
T2 sequence (Q00839 whole entry): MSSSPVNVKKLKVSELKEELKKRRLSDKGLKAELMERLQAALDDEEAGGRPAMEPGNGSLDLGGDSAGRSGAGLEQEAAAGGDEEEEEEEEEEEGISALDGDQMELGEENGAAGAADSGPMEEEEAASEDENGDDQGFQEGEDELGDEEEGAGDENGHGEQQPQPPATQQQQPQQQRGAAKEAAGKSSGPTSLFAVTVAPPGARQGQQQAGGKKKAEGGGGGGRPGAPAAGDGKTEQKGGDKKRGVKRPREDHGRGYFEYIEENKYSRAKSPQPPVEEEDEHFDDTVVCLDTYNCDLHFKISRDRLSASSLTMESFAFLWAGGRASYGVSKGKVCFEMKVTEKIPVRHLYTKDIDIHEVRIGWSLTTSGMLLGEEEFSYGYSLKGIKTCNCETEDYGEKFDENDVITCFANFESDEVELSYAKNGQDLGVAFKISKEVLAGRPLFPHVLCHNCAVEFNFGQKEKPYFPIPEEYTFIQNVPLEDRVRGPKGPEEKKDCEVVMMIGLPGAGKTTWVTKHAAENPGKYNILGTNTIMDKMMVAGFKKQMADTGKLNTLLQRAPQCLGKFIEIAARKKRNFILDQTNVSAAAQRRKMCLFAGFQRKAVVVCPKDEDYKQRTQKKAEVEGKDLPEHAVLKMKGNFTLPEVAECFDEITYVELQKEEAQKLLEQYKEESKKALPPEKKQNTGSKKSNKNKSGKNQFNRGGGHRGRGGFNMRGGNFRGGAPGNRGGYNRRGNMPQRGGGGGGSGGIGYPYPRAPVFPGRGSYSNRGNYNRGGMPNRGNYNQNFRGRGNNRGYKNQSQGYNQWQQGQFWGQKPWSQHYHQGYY
Method: as §3

RS4X = molecular target: T3, RS4X (Homo sapiens, UniProt P62701); assay: as above; type: binding; conditions: RS4X precipitated from EV extracts of human T lymphoblasts
T3 construct: endogenous in cells; host or cells: extracellular vesicles from primary human T lymphoblasts
Method: as §3

HNRPC = molecular target: T4, HNRPC (Homo sapiens, UniProt P07910); assay: as above; type: binding; conditions: HNRPC precipitated from EV extracts of human T lymphoblasts
T4 construct: endogenous in cells; host or cells: extracellular vesicles from primary human T lymphoblasts
T4 sequence (P07910 whole entry): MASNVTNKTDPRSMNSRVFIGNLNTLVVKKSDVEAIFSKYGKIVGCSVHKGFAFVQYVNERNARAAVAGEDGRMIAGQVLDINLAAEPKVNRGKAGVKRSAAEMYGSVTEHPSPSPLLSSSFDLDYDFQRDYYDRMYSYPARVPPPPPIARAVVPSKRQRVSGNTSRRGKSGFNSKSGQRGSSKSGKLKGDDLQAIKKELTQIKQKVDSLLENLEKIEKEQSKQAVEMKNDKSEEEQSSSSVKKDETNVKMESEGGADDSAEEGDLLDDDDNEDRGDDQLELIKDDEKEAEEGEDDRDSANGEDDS
Method: as §3

NUCL = molecular target: T5, NUCL (Homo sapiens, UniProt P19338); assay: as above; type: binding; conditions: NUCL precipitated from EV extracts of human T lymphoblasts
T5 construct: endogenous in cells; host or cells: extracellular vesicles from primary human T lymphoblasts
T5 sequence (P19338 whole entry): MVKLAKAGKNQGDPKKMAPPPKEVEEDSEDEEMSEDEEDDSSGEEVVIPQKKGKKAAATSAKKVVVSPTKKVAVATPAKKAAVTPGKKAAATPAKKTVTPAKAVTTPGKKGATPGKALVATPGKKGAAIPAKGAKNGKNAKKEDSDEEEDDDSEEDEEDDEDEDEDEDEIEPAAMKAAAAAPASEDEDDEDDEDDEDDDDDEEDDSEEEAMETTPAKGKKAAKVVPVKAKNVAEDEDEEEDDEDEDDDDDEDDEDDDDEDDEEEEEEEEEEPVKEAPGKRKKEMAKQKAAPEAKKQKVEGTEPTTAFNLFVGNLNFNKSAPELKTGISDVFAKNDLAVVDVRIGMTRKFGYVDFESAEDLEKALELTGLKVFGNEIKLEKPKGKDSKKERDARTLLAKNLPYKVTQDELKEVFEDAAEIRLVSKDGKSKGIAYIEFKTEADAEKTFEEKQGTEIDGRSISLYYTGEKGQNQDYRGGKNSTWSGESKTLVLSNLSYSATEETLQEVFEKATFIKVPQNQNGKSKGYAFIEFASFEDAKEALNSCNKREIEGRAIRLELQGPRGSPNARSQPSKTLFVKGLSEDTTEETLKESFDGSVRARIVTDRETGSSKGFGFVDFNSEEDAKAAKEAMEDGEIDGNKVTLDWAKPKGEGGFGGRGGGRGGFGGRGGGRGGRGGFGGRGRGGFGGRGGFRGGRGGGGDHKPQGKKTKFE
Method: as §3

hnRNPA1 = molecular target: T6, hnRNPA1 (Homo sapiens, UniProt P09651); assay: as above; type: binding
T6 construct: endogenous in cells; host or cells: extracellular vesicles from primary human T lymphoblasts
T6 sequence (P09651 whole entry): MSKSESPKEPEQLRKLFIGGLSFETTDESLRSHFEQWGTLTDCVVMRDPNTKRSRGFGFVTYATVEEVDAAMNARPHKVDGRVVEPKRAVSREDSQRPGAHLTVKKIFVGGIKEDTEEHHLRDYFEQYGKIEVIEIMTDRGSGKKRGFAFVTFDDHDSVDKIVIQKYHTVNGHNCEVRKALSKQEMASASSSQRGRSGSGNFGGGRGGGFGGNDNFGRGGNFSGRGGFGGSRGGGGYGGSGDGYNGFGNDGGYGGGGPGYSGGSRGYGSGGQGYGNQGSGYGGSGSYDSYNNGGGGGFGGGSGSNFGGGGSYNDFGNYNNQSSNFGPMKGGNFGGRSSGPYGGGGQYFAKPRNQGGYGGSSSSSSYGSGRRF
Method: as §3

Compound | low-molecular weight hnRNPA2B1 band in EVs (hnRNPA2B1 sumoylation) | sumo-conjugated proteins (SUMO-1 blot) (sumo-conjugated proteins) | miR-198 bound to hnRNPA2B1 (IP-qPCR) (hnRNPA2B1 [1]) | EV secretion (CD81 blot) (Jurkat T cells [2]) | cell death (cytochrome c blot) (Jurkat T cells [2]) | levels of miR-17 in EVs (Jurkat T cells [3]) | levels of miR-18 in EVs (Jurkat T cells [3]) | levels of miR-198 in EVs (Jurkat T cells [3]) | Number of peptides identified by mass spectrometry (hnRNPA2B1 [4]; hnRNPA2B1 precipitated from EV extracts of human T lymphoblasts) | binding of hnRNPA2B1 (in words) (hnRNPA2B1 [4]; pull-down from EV extracts) | Number of peptides identified by mass spectrometry (RS3) | Number of peptides identified by mass spectrometry (HNRPU) | Number of peptides identified by mass spectrometry (RS4X) | Number of peptides identified by mass spectrometry (HNRPC) | Number of peptides identified by mass spectrometry (NUCL) | Number of peptides identified by mass spectrometry (hnRNPA1; hnRNPA1 precipitated from EV extracts of human T lymphoblasts) | binding of hnRNPA1 (in words) (hnRNPA1; pull-down from EV extracts)
CCCCCCCCCCCCCCCc1cccc(O)c1C(=O)O [anacardic acid] | could be readily detected | decrease | decreased binding | no changes | no changes | did not change | did not change | reduced | – | – | – | – | – | – | – | – | –
poly-A | – | – | – | – | – | – | – | – | 0 | no binding | 0 | 0 | 0 | 0 | 8 | 0 | no binding
